Measured values taken from PubChem BioAssay (NCI).
Where “and” joins values, the source holds several entries; their conditions need not be identical. Equal values may be shown once.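 Five concentrations, 48 hours, 96-well plates. GI50: concentration for 50% inhibition of growth. TGI: total growth inhibition.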

Tests used:
Test in all cases: DTP human tumour cell line panel, 48 h
[1] = tested on: UACC-62 melanoma
[2] = tested on: BT-549 breast
[3] = tested on: NCI-H23 lung
[4] = tested on: CAKI-1 renal
[5] = tested on: SF-539 CNS
[6] = tested on: DLD-1 colon
[7] = tested on: SN12K1 renal
[8] = tested on: XF 498 CNS
[9] = tested on: M19-MEL melanoma
[10] = tested on: KM20L2 colon
[11] = tested on: DMS 114 small cell lung
[12] = tested on: HOP-18 NSCLC

| SMILES | TGI [1] [µM] | TGI [2] [µM] | TGI [3] [µM] | TGI [4] [µM] | TGI [5] | TGI [9] [µM] | TGI [10] [µM] | TGI [11] [µM] | also measured |
| --- | --- | --- | --- | --- | --- | --- | --- | --- | --- |
| O=[N+]([O-])C(=C/c1cccs1)/C(=C\c1cccs1)[N+](=O)[O-] | 2.53 | 4.27 | 3.52 | 1.41 | 0.417 µM |  |  |  |  |
| CC(=O)Nc1ccc(Sc2nnc(NC(C)=O)s2)cc1 |  |  |  |  | > 100 µM |  |  |  |  |
| C=CCCCCCCCCC(=O)O | 190 |  | 274 | 214 | 212 µM | 449 | 268 | 389 | TGI [6]: 163 µM; TGI [7]: 209 µM; TGI [8]: 30.9 µM; TGI [12]: 226 µM |
| CCOC(=O)C(OP(=O)(OCC)OCC)C(F)(F)F (stereo not given) | > 100 | > 100 | > 100 |  | > 100 µM |  |  |  |  |
| CCN1CCC(O)(c2ccc(O)cc2)C(C(=O)c2ccc(O)cc2)C1 (stereo not given) | 30.9 |  | 44.4 |  |  |  |  |  |  |
| COc1cccc2c1C(=O)c1c(O)c3c(c(O)c1C2=O)C[C@@](O)(C(=O)CO)CC3OC1CC(NCCCC(OC(C)=O)OC(C)=O)C(O)C(C)O1 (stereo not given in full) |  |  |  |  | 0.00445 µM and 0.00115 µM | 0.000323 | 0.167 | 0.000341 | GI50 [1]: < 0.0001 µM; GI50 [3]: < 0.0001 µM; GI50 [8]: 0.0001 µM; GI50 [9]: < 0.0001 µM; GI50 [5]: < 0.0001 µM; GI50 [10]: < 0.0001 µM; GI50 [11]: < 0.0001 µM; GI50 [12]: 0.00507 µM |
